Results published in PubChem BioAssay (NCI).
Several values for one entry are separate records, joined by “and”; a condition that tells them apart may be missing. Equal entries are not always repeated.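 Five concentrations, 48 hours, 96-well plates. GI50 is the concentration that inhibits growth by half. The concentration for full growth arrest is given as TGI.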

Legend:
Experiment in all cases: growth of human tumour cells (NCI), 48 h
U251 CNS = test system: U251 CNS
NCI-H23 lung = test system: NCI-H23 lung
HT29 colon = test system: HT29 colon
HOP-62 NSCLC = test system: HOP-62 NSCLC
NCI-H522 lung = test system: NCI-H522 lung
UACC-257 melanoma = test system: UACC-257 melanoma
NCI-H460 lung = test system: NCI-H460 lung
HS 578T breast = test system: HS 578T breast
HCC-2998 colon = test system: HCC-2998 colon
UACC-62 melanoma = test system: UACC-62 melanoma

| SMILES | GI50 (U251 CNS) | TGI (U251 CNS) | GI50 (NCI-H23 lung) | TGI (NCI-H23 lung) | GI50 (HT29 colon) | TGI (HT29 colon) | GI50 (HOP-62 NSCLC) | TGI (HOP-62 NSCLC) | GI50 (NCI-H522 lung) | TGI (NCI-H522 lung) | GI50 (UACC-257 melanoma) | TGI (UACC-257 melanoma) | GI50 (NCI-H460 lung) | TGI (NCI-H460 lung) | GI50 (HS 578T breast) | TGI (HS 578T breast) | GI50 (HCC-2998 colon) | TGI (HCC-2998 colon) | GI50 (UACC-62 melanoma) | TGI (UACC-62 melanoma) |
| --- | --- | --- | --- | --- | --- | --- | --- | --- | --- | --- | --- | --- | --- | --- | --- | --- | --- | --- | --- | --- |
| CC12CCC(O)CC1CCC1C2CCC2(C)C(C3=CC(=O)OC3)CCC12 (stereo unspecified) | 2.62 µM | 10.1 µM | 5.81 µM | > 64.6 µM | > 100 µM | > 100 µM | 9.53 µM | 44.9 µM | 0.686 µM | 4.44 µM | > 100 µM | > 100 µM | 0.493 µM | > 100 µM | 3.48 µM | > 48.5 µM | > 100 µM | > 100 µM | 0.522 µM | – |
| Cc1nc2ccc(NCCN(C)C)c3c(=O)c4cc(O)ccc4n1c23 | – | 11.7 µM | – | 2.05 µM | – | 2.4 µM | – | 11.1 µM | – | 1.98 µM | – | 13.6 µM | – | 1.39 µM | – | 2.77 µM | – | 1.71 µM | – | 5.63 µM |
| COc1cc(/C=C/C(=O)c2cc(OC)c(OC)c(OC)c2)cc(OC)c1OC | 3.21 µM | 16.6 µM | 3.15 µM | 13.7 µM | 3.64 µM | 15 µM | 4.07 µM | 18.2 µM | 3.09 µM | 12.1 µM | 4.35 µM | 34.6 µM | 1.89 µM | 4.07 µM | 2.76 µM | 59.1 µM | 2.95 µM | 6.65 µM | 5.93 µM | 20.4 µM |
| Oc1ccc(SCc2ccc(NCc3ccccc3)cc2)cc1 | – | > 100 µM | – | > 100 µM | – | 48.3 µM | – | > 100 µM | – | 98.2 µM | – | > 100 µM | – | > 100 µM | – | > 100 µM | – | 94.7 µM | – | 76.4 µM |
| COc1ccc(-c2nn(-c3cccc(NC(=O)Nc4cccc(C(F)(F)F)c4)c3)cc2-c2ccncc2)cc1Cl | 1.06 µM | 3.98 µM | 3.02 µM | > 100 µM | 2.24 µM | 49.1 µM | 2.81 µM | 10.9 µM | 1.6 µM | 6.07 µM | 2.28 µM | 10.8 µM | 1.76 µM | 11.5 µM | 1.65 µM | 7.84 µM | 5.32 µM | > 100 µM | 2.02 µM | 5.59 µM |
| COc1ccc(Cn2cc(Cn3c(=O)c(-c4nc5ccccc5[nH]4)cc4ccccc43)nn2)c(OC)c1OC | 0.308 µM and 0.183 µM | 8.29 µM and 17.6 µM | 0.329 µM and 0.581 µM | 50 µM and > 100 µM | 0.0712 µM | 4.05 µM | 0.179 µM and 0.525 µM | 0.938 µM and 3.87 µM | 0.148 µM and 0.176 µM | – | 0.796 µM and 2.22 µM | – | 0.18 µM | 0.893 µM | 0.0778 µM and 0.168 µM | – | 0.174 µM and 0.291 µM | 1.2 µM and 2.07 µM | 0.672 µM | 5.42 µM |
| CN1CCN(c2cc(Nc3cc(C4CC4)[nH]n3)nc(Nc3ccc(CC(=O)NCc4cccc(F)c4)cc3)n2)CC1 | 0.978 µM | 5.24 µM | 1.05 µM | 9.74 µM | 0.379 µM | 11.6 µM | 0.754 µM | 14.4 µM | 1.53 µM | 7.08 µM | 1.13 µM | 2.94 µM | 0.536 µM | 3.68 µM | 0.28 µM | 2.34 µM | 1.15 µM | 12.1 µM | 1.62 µM | 16.2 µM |
| c1ccc2c(c1)ccc1c3ccccc3ccc21 | > 50 µM | > 50 µM | > 50 µM | > 50 µM | > 50 µM | > 50 µM | > 50 µM | > 50 µM | > 50 µM | > 50 µM | > 50 µM | > 50 µM | > 50 µM | > 50 µM | > 50 µM | > 50 µM | > 50 µM | > 50 µM | > 50 µM | > 50 µM |
| COc1ccc2sc3c(NCCCNCCO)nc4ccccc4c3c(=O)c2c1 | 1.6 µM | 3.16 µM | 1.73 µM | 3.27 µM | 1.57 µM | 3.03 µM | 1.59 µM | 3.26 µM | 1.74 µM | 3.37 µM | 1.93 µM | 3.99 µM | 1.51 µM | 2.96 µM | 1.42 µM | 3.48 µM | 1.68 µM | 3.29 µM | 1.7 µM | 3.16 µM |
| C=C1C(=O)O[C@H]2[C@H]1CC(=O)/C(C)=C\CC[C@@]1(C)O[C@@H]21 | 5.32 µg/mL | 10.9 µg/mL | 3.94 µg/mL | 8.18 µg/mL | 1.29 µg/mL | 4.32 µg/mL | 4.31 µg/mL | 8.45 µg/mL | 0.411 µg/mL | 0.957 µg/mL | 3.39 µg/mL | 6.99 µg/mL | 3.83 µg/mL | 8.08 µg/mL | 4.43 µg/mL | 9.16 µg/mL | 3.47 µg/mL | 7.4 µg/mL | 2.75 µg/mL | 6.02 µg/mL |
| NCC(=O)CCC(=O)O | > 100 µM | > 100 µM | > 100 µM | > 100 µM | > 100 µM | > 100 µM | > 100 µM | > 100 µM | > 100 µM | > 100 µM | > 100 µM | > 100 µM | > 100 µM | > 100 µM | > 100 µM | > 100 µM | > 100 µM | > 100 µM | > 100 µM | > 100 µM |
| CCCCc1nc2cc(/C=C/C(=O)NO)ccc2n1CCN(CC)CC | 0.28 µM | 1.43 µM | 0.452 µM | 7.72 µM | 0.198 µM | 0.762 µM | 0.322 µM | 11.6 µM | 0.0802 µM | 0.52 µM | 0.0759 µM | 0.58 µM | 0.312 µM | > 100 µM | 0.515 µM | 33 µM | 0.242 µM | 1.23 µM | 0.188 µM | 0.743 µM |
| C=CCNc1cccc2c1C(=O)c1ccccc1C2(O)CC=C (stereo unspecified) | 17.4 µM | 39.2 µM | 18.2 µM | 45.7 µM | 16.8 µM | 36.7 µM | 24.2 µM | 61.2 µM | 18.4 µM | 51.6 µM | 15 µM | 39 µM | 56 µM | > 100 µM | 18.8 µM | 43.5 µM | 20.1 µM | 37.4 µM | 10.6 µM | 24.4 µM |
